System: Arabidopsis thaliana Col-0 root protoplasts
Test: Calcium influx ([Ca2+]cyt) in root protoplasts, Fluo-4 AM probe
Format: cell-based
Conditions: 10 µM, Fluo-4 normalized fluorescence (F/F0), within first 30 min; n = 6; Figure 4A,B
Procedure: Two-week-old Arabidopsis thaliana seedling roots (from 27 mg seeds) were collected and were cut into 1–2 mm segments and incubated in a protoplasting solution (20 mM MES pH 5.7, 0.4 M mannitol, 20 mM KCl, 10 mM CaCl2, 0.1% (w/v) BSA, 1.5% (w/v) cellulase R10 (Duchefa Biochemie, Haarlem, The Netherlands), 0.4% (w/v) macerozyme R10 (Duchefa Chimie)) for 3 h at room temperature and in the dark. After incubation, 1 mL of solution A (154 mM NaCl, 5 mM KCl, 125 mM CaCl2, 4 mM MES, pH = 5.7) was added inside. The suspension was agitated gently and filtered by a 70 µm pore filter to remove extra root debris. Filtered suspension was centrifuged at 850 g for 6 min at room temperature, and the pelleted protoplasts were rinsed three times with solution B (4 mM MES pH 5.7, 154 mM NaCl, 125 mM CaCl2, 5 mM KCl) before being resuspended in solution C (2 mM MES pH 5.7, 0.5 M mannitol, 20 mM KCl, 2 mM CaCl2) at a working concentration of 1–2 × 10^5 cells per mL. Calcium measurements were also performed on protoplasts with the Fluo-4 AM probe. Protoplasts isolated from roots of Arabidopsis thaliana Col-0 were incubated for 1 h with 5 µM of Fluo-4 AM (Thermo Fisher Scientific, Hampton, VA, USA) (from a 5 mM stock solution in DMSO). The suspension was then centrifuged at 750 g, and the supernatant was discarded to eliminate the remaining free fluo-4 AM. The protoplasts were resuspended in fresh solution C and were incubated for 1 h. Microplates (96 Flat Black-Greiner Bio-One^TM CellStar^TM, Fischer Scientific) were loaded with 150 µL of protoplast solution per well. After the addition of 50 µL of 4-times-concentrated treatment, the fluorescence was recorded every 15 s using a Spark® microplate reader (Tecan, Männedorf, Switzerland) with an excitation filter at 485 ± 20 nm and an emission filter at 535 ± 25 nm. The values obtained were then converted as normalized fluorescence increase (F/F0) by dividing the fluorescence measured at each time point (F) by the fluorescence measured at the first time point (F0).

| Substance | [Ca2+]cyt increase in root protoplasts |
| --- | --- |
| lichenysin | fast increase in [Ca^2+]cyt |
| pumilacidin | not significant |
| surfactin [Srf] | fast increase in [Ca^2+]cyt |

System: protoplasts isolated from roots of Arabidopsis thaliana Col-0
Test: [ROS]intra burst in root protoplasts, DCFH-DA
Format: cell-based
Conditions: 10 µM, fold increase in fluorescence at 5 min; n = 12 from three independent experiments; Figure 2D
Procedure: Two-week-old Arabidopsis thaliana seedling roots (from 27 mg seeds) were collected and were cut into 1–2 mm segments and incubated in a protoplasting solution (20 mM MES pH 5.7, 0.4 M mannitol, 20 mM KCl, 10 mM CaCl2, 0.1% (w/v) BSA, 1.5% (w/v) cellulase R10 (Duchefa Biochemie, Haarlem, The Netherlands), 0.4% (w/v) macerozyme R10 (Duchefa Chimie)) for 3 h at room temperature and in the dark. After incubation, 1 mL of solution A (154 mM NaCl, 5 mM KCl, 125 mM CaCl2, 4 mM MES, pH = 5.7) was added inside. The suspension was agitated gently and filtered by a 70 µm pore filter to remove extra root debris. Filtered suspension was centrifuged at 850 g for 6 min at room temperature, and the pelleted protoplasts were rinsed three times with solution B (4 mM MES pH 5.7, 154 mM NaCl, 125 mM CaCl2, 5 mM KCl) before being resuspended in solution C (2 mM MES pH 5.7, 0.5 M mannitol, 20 mM KCl, 2 mM CaCl2) at a working concentration of 1–2 × 10^5 cells per mL. For [ROS]intra measurements in protoplasts, protoplasts isolated from roots of Arabidopsis thaliana Col-0 plants were incubated for 10 min with 5 µM of DCFH-DA. Then, wells of black 96-well microplates (96 Flat Black-Greiner Bio-One^TM CellStar^TM, Fischer Scientific) were loaded with 150 µL of protoplasts solution per well. After the addition of 50 µL of four-times-concentrated treatment, the fluorescence was recorded every minute using a microplate reader with an excitation filter at 485 ± 20 nm and emission filter at 535 ± 25 nm. The data were processed as for the roots.

| Substance | [ROS]intra burst in root protoplasts vs mock |
| --- | --- |
| lichenysin | significant boosting activity |
| pumilacidin | not active |
| surfactin [Srf] | significant boosting activity |

System: Botrytis cinerea
Test: Induced systemic resistance (ISR) against B. cinerea leaf infection after root treatment
Format: in vivo
Conditions: Arabidopsis thaliana Col-0, hydroponic, 10 µM at roots 24 h before leaf infection, scored 4 dpi vs mock (0.1% EtOH); n = 30 from two independent experiments; Figure 5
Procedure: Plants were grown for 4 weeks in hydroponic conditions in Araponics systems containing a nutrient solution (0.25% (v/v) FLORAMICRO®, 0.25% (v/v) FLORABLOOM®, 0.25% (v/v) FLORAGRO®; General Hydroponics®, in volume ratio 1:1:1, as recommended by the manufacturer), with a photoperiod of 12 h and a temperature of 22 °C. Plants were then transferred into 10 mL vials filled with fresh nutrient solution and treated at the root level with CLPs or ethanol (mock treatment) to obtain final concentrations of 10 µM and 0.1%, respectively. After incubation for 24 h, plants were inoculated with Botrytis cinerea (Helotiales: Sclerotiniaceae) as the conidia solution. Spores were collected from B. cinerea grown on PDA plates for 4 weeks using a solution composed of 1.75 g/L KH2PO4; 0.74 g/L MgSO4; 4 g/L glucose, and 0.02% (v/v) Tween 20. After spore collection, the concentration was adjusted to 5 × 10^5 spores per mL, and spores were incubated at 30 °C for eight hours. Inoculation was conducted by inoculating a drop of 3 µL of conidia solution onto seven leaves per plant and fifteen plants per treatment. The number of spreading lesions was evaluated 96 h post infection.

| Substance | Leaf infection by B. cinerea (disease level) after root treatment |
| --- | --- |
| lichenysin | significantly reduced leaf infection |
| pumilacidin | no disease reduction |
| surfactin [Srf] | significantly reduced leaf infection |

Reference: publication PMC12562324, “Surfactin Structural Variants Differentially Modulate Plant Immune Responses” (Biomolecules, 2025)
